The nature of experiment [1]: Luminescence Cell-Based Dose Response HTS to Identify Activators of Luciferase Translation or Activity in H4 […] Cells. [Related pubchem assays: 1829 (Project Summary), 1814 (Primary HTS)]. Type of experiment: functional.
A short description of experiment [2]: microbe, parasite or virus in culture. Type of experiment: functional. As to conditions: Mycobacterium tuberculosis.
A short description of experiment [3]: cytotoxicity in HEK-293T cells, dose response, cytotoxicity control for TCR NF-kB inhibitor project, luminescence, T-cell screen hits (AID 489026).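 Also: cells exposed to compound about 14 hours before the viability readout.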 Type of experiment: functional, cell-based.
The subject of another experiment is H4. In words: Luminescence Cell-Based Dose Response HTS to Identify Activators of 5'UTR Stem-Loop Driven Prion Protein mRNA Translation in H4 Neuroglioblastoma Cells. [Related pubchem assays: 1829 (Project Summary), 1814 (Primary HTS)]. Type of experiment: functional. Conditions: Homo sapiens.
Experiment [4] can be described thus: Luminescence Cell-Based Dose Retest to Confirm Inhibitors of Cancer Stem Cells. [Related pubchem assays (depositor defined):AID2717, AID2721]. It is filed as functional. As to conditions: Homo sapiens.
Experiment [5] can be described thus: Luminescence Cell-Based Dose Confirmation HTS to Identify Activators of 5'UTR Stem-Loop Driven Alpha-Synuclein mRNA Translation in H4 Neuroglioblastoma Cells. [Related pubchem assays: 1829 (Project Summary), 1814 (Primary HTS)]. It is filed as functional.
Another experiment has as its target T1, Coagulation factor XII (Homo sapiens, UniProt P00748).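 Also: activated factor XIIa alpha cleaving a fluorogenic AMC peptide substrate; inhibitor potency from loss of enzyme activity.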
T1 sequence (P00748 whole entry): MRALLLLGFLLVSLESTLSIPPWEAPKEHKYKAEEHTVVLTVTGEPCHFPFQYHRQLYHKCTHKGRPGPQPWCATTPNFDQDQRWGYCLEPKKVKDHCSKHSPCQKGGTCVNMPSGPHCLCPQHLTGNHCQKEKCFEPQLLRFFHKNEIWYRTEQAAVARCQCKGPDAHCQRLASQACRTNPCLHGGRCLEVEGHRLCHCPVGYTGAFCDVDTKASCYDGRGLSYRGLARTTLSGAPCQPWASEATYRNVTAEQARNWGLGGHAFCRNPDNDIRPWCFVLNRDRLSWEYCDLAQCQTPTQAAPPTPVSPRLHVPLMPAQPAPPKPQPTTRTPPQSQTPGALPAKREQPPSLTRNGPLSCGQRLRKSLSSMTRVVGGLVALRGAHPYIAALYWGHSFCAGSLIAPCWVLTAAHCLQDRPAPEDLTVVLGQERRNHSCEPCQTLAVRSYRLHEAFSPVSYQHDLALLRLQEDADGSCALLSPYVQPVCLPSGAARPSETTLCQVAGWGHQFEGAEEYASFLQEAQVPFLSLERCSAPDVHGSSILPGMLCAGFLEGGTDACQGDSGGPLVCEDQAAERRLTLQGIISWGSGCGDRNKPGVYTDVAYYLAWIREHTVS
Type of experiment: functional.

The target of the next experiment is T2, Estrogen receptor (Homo sapiens, UniProt P03372).
T2 sequence (P03372 whole entry): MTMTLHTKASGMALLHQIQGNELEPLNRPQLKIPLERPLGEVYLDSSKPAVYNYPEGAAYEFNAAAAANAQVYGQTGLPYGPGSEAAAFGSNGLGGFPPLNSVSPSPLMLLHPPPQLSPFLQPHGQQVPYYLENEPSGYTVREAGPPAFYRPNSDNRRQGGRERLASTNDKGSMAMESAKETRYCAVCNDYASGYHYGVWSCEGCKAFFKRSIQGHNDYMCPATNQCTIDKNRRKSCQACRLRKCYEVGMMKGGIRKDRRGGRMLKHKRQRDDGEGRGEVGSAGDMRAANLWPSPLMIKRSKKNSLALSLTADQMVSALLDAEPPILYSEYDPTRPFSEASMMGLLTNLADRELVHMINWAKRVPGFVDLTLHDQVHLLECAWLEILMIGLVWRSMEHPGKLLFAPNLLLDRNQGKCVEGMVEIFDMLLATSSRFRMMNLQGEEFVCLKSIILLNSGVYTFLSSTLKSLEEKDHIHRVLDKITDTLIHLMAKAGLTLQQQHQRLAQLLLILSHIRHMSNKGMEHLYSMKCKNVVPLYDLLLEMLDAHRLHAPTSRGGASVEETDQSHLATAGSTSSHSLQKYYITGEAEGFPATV

The target of experiment [6] is T3, Ubiquitin-conjugating enzyme E2 N (Homo sapiens, UniProt P61088).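 Also: Dose-response confirmation in a TR-FRET assay detecting UBC13-driven polyubiquitin chain formation, inhibition measured.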
T3 sequence (P61088 whole entry): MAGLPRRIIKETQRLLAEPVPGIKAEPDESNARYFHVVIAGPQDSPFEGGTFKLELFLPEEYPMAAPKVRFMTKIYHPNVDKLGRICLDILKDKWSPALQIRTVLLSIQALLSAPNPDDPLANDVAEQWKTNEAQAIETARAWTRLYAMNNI
It is filed as functional.

Experiment [7] is described as follows: A Cell Based Secondary Assay To Explore Cytotoxicity of Compounds that Sensitize Mycobacterium Tuberculosis to Beta-Lactam Antibiotics. It is filed as functional.
In the next experiment the test system is INS1. The experiment in a line: beta cell apoptosis inhibitors, cytokine rescue, dose response, luminescence, retest (AID 449756).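 Also: cell death triggered by IL-1 beta plus TNF-alpha plus IFN-gamma mixture; protective hits raise ATP signal compared with cytokine alone wells.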 Conditions: Rattus norvegicus. It is filed as functional, cell-based.
In a further experiment the target is Estrogen receptor beta (Homo sapiens, UniProt Q92731).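 Also: recombinant ER-beta bound to coactivator SRC1 peptide in presence of estradiol agonist; inhibitors block coactivator peptide binding and lower the FRET signal.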
The subject of experiment [8] is BJ. In words: cells. Conditions: Homo sapiens. Type of experiment: functional, cell-based.
Experiment [9] has as its system BJ. In words: cytotoxicity toward BJ-TERT fibroblasts, dose response, cell-based, RAS-independent, luminescence (AID 1933). It is filed as functional. As to conditions: Homo sapiens.
The nature of experiment [10]: cytotoxicity toward DRD oncogenic fibroblasts, dose response, cell-based, non-viral oncogenic, luminescence (AID 1934). It is filed as functional. As to conditions: Homo sapiens.
For experiment [11], the system named is BJ. The experiment in a line: cytotoxicity toward BJ-TERT-LT-ST fibroblasts, dose response, cell-based, RAS-independent, luminescence (AID 1935).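 Also: BJ fibroblasts immortalized with TERT plus LT and ST oncogenes.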 Conditions: Homo sapiens. Type of experiment: functional.
Experiment [12] concerns Streptococcus sp. 'group A'. In words: growth inhibition of control SK(-) GAS strain, dose response, counter-screen for streptokinase expression inhibitor project, luminescence, kanamycin, BacTiterGlo, confirmation (AID 1900). It is filed as functional, organism-based. In general terms: A counterscreen serves to expose hits that act by an unwanted route or on another target.

The target in another experiment is T4, Streptokinase A (Streptococcus pyogenes serotype M1, UniProt P10520).
T4 sequence (P10520 whole entry): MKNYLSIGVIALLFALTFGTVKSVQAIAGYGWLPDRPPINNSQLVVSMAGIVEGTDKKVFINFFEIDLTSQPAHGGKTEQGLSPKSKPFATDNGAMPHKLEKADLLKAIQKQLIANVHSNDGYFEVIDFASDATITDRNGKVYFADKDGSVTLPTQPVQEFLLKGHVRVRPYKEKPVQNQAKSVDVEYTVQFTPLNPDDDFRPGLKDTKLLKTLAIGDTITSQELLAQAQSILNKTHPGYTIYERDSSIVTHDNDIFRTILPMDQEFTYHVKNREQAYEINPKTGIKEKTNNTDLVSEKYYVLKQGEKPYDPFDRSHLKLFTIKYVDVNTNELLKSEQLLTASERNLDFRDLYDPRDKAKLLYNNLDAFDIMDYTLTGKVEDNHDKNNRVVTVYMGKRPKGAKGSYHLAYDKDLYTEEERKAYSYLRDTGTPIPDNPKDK
In words: S. pyogenes streptokinase expression inhibitors, potency, dose response, plasminogen activation absorbance, OD405 (AID 1914).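 Also: secreted streptokinase activity via plasminogen activation per viability signal from cell pellet.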 It is filed as functional, Streptococcus pyogenes M1 GAS.

In another experiment the test system is Streptococcus. In words: Group A Streptococcus viability loss, dose response, counter-screen for streptokinase expression inhibitor project, luminescence, BacTiterGlo (AID 1915).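 Also: potency for reduction of bacterial viability or growth.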 Type of experiment: functional, organism-based.
For experiment [13], the target named is Induced myeloid leukemia cell differentiation protein Mcl-1 (Homo sapiens, UniProt Q07820). It is filed as functional.
The target in experiment [14] is T5, Mannose-6-phosphate isomerase (Homo sapiens, UniProt P34949).
T5 sequence (P34949 whole entry): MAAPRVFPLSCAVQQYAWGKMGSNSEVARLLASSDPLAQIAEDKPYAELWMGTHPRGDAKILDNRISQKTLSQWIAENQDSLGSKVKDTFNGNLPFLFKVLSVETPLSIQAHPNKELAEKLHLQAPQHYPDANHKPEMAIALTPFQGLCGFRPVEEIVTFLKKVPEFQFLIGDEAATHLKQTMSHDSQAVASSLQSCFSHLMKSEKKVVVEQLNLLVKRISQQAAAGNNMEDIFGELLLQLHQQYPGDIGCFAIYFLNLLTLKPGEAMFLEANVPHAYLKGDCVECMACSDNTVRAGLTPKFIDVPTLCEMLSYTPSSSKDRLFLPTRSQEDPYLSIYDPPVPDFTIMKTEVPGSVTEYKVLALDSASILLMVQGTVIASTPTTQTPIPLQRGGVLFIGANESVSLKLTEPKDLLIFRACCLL
In words: human PMI inhibitors, high substrate, primary screen, biochemical, fluorescence intensity, high mannose 6-phosphate (AID 1220).

The next experiment addresses Cytochrome P450 2C19 (Homo sapiens, UniProt P33261). In words: Cytochrome panel assay with activity outcomes. Panel member name: p450-cyp2c19 Compounds with AC50 equal or less than 10 uM are considered active. It is filed as functional. As to conditions: read-out: AC50.

Results on 22 compounds are retold here after ChEMBL document CHEMBL1201862, “PubChem BioAssay data set” (2004).

Calls of active or inactive are those of the source.

The EC50 is the concentration at which the effect is half-maximal. What is called IC50 is the midpoint of a concentration-inhibition curve. For orientation: AC50 means the midpoint of the concentration-response curve, whichever way the signal moves.

Chain of Induced myeloid leukemia cell differentiation protein Mcl-1 (Q07820 whole entry): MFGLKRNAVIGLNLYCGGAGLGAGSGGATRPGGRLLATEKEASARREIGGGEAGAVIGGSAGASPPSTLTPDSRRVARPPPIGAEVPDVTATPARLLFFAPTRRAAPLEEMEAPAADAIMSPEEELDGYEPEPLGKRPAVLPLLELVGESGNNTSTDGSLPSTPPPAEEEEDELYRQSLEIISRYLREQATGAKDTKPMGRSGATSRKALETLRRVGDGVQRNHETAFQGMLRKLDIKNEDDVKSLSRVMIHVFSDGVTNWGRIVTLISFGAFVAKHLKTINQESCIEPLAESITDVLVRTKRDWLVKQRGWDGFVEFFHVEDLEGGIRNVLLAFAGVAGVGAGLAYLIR
Chain of Estrogen receptor beta (Q92731 whole entry): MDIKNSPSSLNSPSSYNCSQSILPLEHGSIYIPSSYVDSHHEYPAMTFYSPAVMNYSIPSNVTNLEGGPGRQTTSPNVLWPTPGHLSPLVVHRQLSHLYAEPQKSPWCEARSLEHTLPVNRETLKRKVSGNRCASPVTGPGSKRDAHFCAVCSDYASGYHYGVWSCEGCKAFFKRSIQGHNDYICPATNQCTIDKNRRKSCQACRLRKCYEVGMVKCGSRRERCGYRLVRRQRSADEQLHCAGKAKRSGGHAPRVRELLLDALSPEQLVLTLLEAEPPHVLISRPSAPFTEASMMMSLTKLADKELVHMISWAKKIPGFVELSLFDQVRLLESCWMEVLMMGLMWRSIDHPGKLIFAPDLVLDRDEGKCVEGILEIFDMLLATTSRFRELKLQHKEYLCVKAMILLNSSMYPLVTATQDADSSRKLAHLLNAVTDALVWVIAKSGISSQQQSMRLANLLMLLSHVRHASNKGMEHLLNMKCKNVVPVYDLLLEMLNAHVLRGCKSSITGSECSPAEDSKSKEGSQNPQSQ
Chain of Cytochrome P450 2C19 (P33261 whole entry): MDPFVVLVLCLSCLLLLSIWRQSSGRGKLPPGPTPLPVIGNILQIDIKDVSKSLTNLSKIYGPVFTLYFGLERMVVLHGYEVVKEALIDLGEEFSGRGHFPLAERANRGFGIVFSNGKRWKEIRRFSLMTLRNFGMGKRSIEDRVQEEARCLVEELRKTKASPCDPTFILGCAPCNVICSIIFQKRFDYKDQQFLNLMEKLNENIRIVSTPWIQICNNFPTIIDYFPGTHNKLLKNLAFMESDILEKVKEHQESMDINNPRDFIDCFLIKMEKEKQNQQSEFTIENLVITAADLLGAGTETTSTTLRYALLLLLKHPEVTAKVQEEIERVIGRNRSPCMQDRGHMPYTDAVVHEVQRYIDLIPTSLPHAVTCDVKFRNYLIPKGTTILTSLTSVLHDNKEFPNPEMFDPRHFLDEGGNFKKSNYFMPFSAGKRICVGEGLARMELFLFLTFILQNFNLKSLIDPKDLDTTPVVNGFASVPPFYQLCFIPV

`O=C(c1ccccc1)c1nn(-c2ccc(Cl)cc2)c(=O)cc1C(F)(F)F`: the values for the EC50 (in experiment [1]; in the experiment with H4; in experiment [5]) were > 120 µM (not active), > 120 µM (not active) and 0.222 µM (active), respectively. For the same compound, the CC50 in [2] was 15.7 µM (active). Besides, the IC50 in [3] was > 80 µM (inactive). The AC50 in [4] is 4.21 µM (active).
As for `COC(=O)C(C)NC(=O)C1CCCN1S(=O)(=O)c1cc(C)c(Cl)cc1C` (stereo not given), the IC50 on Coagulation factor XII was > 50 µM (inactive).
On to `CN(C)CC(=O)N1c2ccccc2CCc2ccc(NC(=O)c3ccc(N)cc3)cc21`, for which the IC50 at Estrogen receptor is 15.6 µM (active).
For `Cc1ccc(C)c(NC(=O)CN(C)C(=O)CCN2C(=O)c3ccccc3C2=O)c1`, the IC50 at Coagulation factor XII was > 50 µM (inactive).
In the case of `Cc1cc(C)cc(OCC(=O)NNC(=O)c2ccccn2)c1`, the IC50 in [6] was > 20 µM (inactive). Also, in experiment [7], the CC50 was 11.4 µM (active).
With `Brc1c(C[n+]2ccccc2)nc2ccccn12`, the IC50 on Coagulation factor XII is > 50 µM (inactive).
In the case of `CCc1nnc(NC(=O)C2Cc3ccccc3CN2S(=O)(=O)c2cccs2)s1` (stereo not given), the 50% inhibitory concentration (IC50) against Estrogen receptor is listed as > 50 µM (not active).
`CCOc1ccc(S(=O)(=O)N(C(=O)c2ccco2)c2cc3sc(=O)oc3c3ccccc23)cc1`: the AC50 in the experiment with INS1 was 4.42 µM (active). Further, the CC50 in experiment [7] is 31.6 µM (active).
For the compound `N#CCCS(=O)(=O)c1nnnn1-c1ccccc1`, the IC50 at Estrogen receptor and against Estrogen receptor beta was > 50 µM (not active) throughout.
Regarding `Cc1cc(C)cc(OCc2nc3cc(Br)c[nH]c-3n2)c1`, the IC50 against Estrogen receptor is > 50 µM (not active).
In the case of `O=C(C1=C[C@H](c2ccc(Br)cc2)C[C@H](OCc2ccc(CO)cc2)O1)N1CCN(Cc2ccc3c(c2)OCO3)CC1`, the CC50 in experiment [7] is 32 µM (active).
With `CCOc1cc(NC(=O)c2ccc(C)cc2)c(OCC)cc1N=C(S)NCCCN1CCOCC1`, at Coagulation factor XII, the IC50 is > 50 µM (inactive).
Still for that read-out and setting: to `Cc1c(Cl)cccc1Nc1nc(N)nc(CN2CCc3ccccc3C2)n1` belongs > 50 µM (inactive).
`O=C(c1ccccc1-c1ccccc1)N1CCN(c2ccccn2)CC1`: the EC50 with BJ [8] is 19.9 µM (active); in the experiment with BJ [9], 9.85 µM (active); in [10], 11.4 µM (active); with BJ [11], 13.9 µM (inconclusive). Moreover, in experiment [3], the IC50 is > 80 µM (inactive).
As to `CCc1cccc2c(C(=O)COC(=O)/C=C/c3ccc(O)c(OC)c3)c[nH]c12`, the EC50 was 8.62 µM (active) in experiment [12], > 150 µM (not active) at Streptokinase A and 41.1 µM (active) in the experiment with Streptococcus. Besides, the CC50 in [7] was > 40 µM (active).
For the compound `c1ccc(CNC2=NN=C(c3cc4ccccc4o3)CS2)cc1`, in experiment [13], the IC50 is reported as 2.66 µM (not active).
As to `COc1cc(OC)cc(-c2nnc(NC(=O)CCS(=O)(=O)c3ccc(C)cc3)o2)c1`, the CC50 in [7] is 32.4 µM (active).
For `CSC1=NC(c2ccc(C)cc2)=NC(C(Cl)(Cl)Cl)N1` (stereo not given), the IC50 in [3] is > 80 µM (inactive).
Consider `CCOC(=O)c1c(C)oc2c1c(/C=N/C1CCS(=O)(=O)C1)c(O)c1ccccc12` (stereo not given), for which the results for the IC50 (in experiment [14]; on Estrogen receptor) were > 50 µM (not active) and 16 µM (active), respectively. In addition, the AC50 on Cytochrome P450 2C19 was 1.78 µM (inconclusive).
In the case of `CCCCNc1c(-c2ccc(SC3CCCCC3)c(OC)c2)nc2ccc(C)cn12`, the CC50 in [2] is > 40 µM (active). Further, in experiment [4], the AC50 is 3.1 µM (active).
As to `Cc1ccc(-c2nnc(S)n2/N=C/C=C\c2ccccc2[N+](=O)[O-])cc1`, the IC50 on Estrogen receptor was 7.32 µM (active).
As to `Cn1cc(C(=O)N/N=C/c2ccc([N+](=O)[O-])cc2)c2ccccc21`, the IC50 in [13] is 1.94 µM (active).
